Results from patent US20230295197A1, “STAT5 and STAT6 Degraders and Uses Thereof” (REGENTS OF THE UNIVERSITY OF MICHICAN, priority 2022, published 2023).

Legend:
STAT6 = target: T1, STAT6 (Homo sapiens, UniProt P42226); test: Immunoblotting (Western blot) analysis of STAT6 degradation efficiency of degraders in treated cells; format: cell-based; conditions: MOLM-16 cells, numeric bound, read-out: DC50 S6 MOLM-16
T1 construct: endogenous in cells; host or cells: MOLM-16, KU-812, SKNO1, MB231, L1236
T1 sequence (P42226 1-847): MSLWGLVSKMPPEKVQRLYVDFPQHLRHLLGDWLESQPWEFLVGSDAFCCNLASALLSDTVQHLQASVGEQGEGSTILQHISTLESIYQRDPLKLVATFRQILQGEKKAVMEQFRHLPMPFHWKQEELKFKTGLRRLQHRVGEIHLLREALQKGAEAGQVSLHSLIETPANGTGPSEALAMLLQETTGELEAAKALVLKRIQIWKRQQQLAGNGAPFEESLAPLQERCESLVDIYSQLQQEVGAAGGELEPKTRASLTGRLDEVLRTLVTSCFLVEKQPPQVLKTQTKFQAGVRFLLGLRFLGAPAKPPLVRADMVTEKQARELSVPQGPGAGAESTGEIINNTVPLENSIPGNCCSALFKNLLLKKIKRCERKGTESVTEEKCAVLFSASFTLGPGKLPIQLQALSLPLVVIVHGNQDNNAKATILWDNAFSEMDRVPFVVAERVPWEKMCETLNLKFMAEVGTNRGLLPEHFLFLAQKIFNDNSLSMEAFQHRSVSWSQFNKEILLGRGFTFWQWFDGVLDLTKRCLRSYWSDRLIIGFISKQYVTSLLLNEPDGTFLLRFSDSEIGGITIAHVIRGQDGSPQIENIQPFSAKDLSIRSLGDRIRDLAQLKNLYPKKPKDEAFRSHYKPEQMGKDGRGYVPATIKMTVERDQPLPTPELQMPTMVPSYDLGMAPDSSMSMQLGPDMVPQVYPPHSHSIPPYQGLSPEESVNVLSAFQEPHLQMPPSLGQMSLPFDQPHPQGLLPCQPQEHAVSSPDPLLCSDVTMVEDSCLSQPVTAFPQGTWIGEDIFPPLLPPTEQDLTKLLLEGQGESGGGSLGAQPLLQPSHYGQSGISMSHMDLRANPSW
Procedure, shortened: (§1)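 Degradation read by quantitative near-infrared Western blot: equal protein loads (20-40 μg) from compound-treated versus untreated cells, probed overnight at 4° C. for STAT5 or STAT6 with GAPDH reference. Compound concentrations and exposure times as indicated; cells grown in medium with 10% FBS at 37° C.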

STAT5 = test: Immunoblotting (Western blot) analysis of STAT5 degradation efficiency of degraders in treated cells; format: cell-based; conditions: MOLM-16 cells, numeric bound, read-out: DC50 S5 MOLM-16
Procedure, shortened: as §1

Q: What does the source list for `CC(C)(C)[C@H](NC(=O)c1cc2cc(C(F)(F)P(=O)(O)O)ccc2s1)C(=O)N1CCC[C@H]1C(=O)N1C[C@@H](Oc2ccc3ccccc3c2)C[C@H]1C(=O)NCCCC#Cc1cccc2c1CN(C1CCC(=O)NC1=O)C2=O` (stereo partly drawn) [Compound 659, ((2-(((2S)-1-((2S)-2-((2S,4S)-2-((5-(2-(2,6-dioxopiperidin-3-yl)-1-oxoisoindolin-4-yl)pent-4-yn-1-yl)carbamoyl)-4-(naphthalen-2-yloxy)pyrrolidine-1-carbonyl)pyrrolidin-1-yl)-3,3-dimethyl-1-oxobutan-2-yl)carbamoyl)benzo[b]thiophen-5-yl)difluoromethyl)phosphonic acid]?
A: DC50 (STAT6): > 300 nM; DC50 (STAT5): > 300 nM
